Measurements reported in US8710043B2, “TRPM8 antagonists and their use in treatments” (Amgen Inc., priority 2011, dated 2014).

Target: T1, human TRPM8 (Homo sapiens, UniProt Q7Z2W7)
T1 construct: expressed in transfected cells; host or cells: Chinese hamster ovary (CHO) cells, T-REx tetracycline-inducible system, co-transfected with aequorin
Assay: Luminescence readout assay for measuring intracellular calcium, icilin activation
Assay type: cell-based
Settings: CHO cells expressing human TRPM8, aequorin luminescence, 1 μM icilin activation; read-out: hTRPM8 IC50
In short: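 The read-out was luminescence reporting intracellular calcium, recorded by a CCD-based luminometer. Compounds were preincubated for 2.5 min before agonist challenge with 1 μM icilin. Human TRPM8 was expressed in a stable T-REx CHO line, induced with 0.5 μg/mL tetracycline the day before.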

T1 sequence (Q7Z2W7 whole entry): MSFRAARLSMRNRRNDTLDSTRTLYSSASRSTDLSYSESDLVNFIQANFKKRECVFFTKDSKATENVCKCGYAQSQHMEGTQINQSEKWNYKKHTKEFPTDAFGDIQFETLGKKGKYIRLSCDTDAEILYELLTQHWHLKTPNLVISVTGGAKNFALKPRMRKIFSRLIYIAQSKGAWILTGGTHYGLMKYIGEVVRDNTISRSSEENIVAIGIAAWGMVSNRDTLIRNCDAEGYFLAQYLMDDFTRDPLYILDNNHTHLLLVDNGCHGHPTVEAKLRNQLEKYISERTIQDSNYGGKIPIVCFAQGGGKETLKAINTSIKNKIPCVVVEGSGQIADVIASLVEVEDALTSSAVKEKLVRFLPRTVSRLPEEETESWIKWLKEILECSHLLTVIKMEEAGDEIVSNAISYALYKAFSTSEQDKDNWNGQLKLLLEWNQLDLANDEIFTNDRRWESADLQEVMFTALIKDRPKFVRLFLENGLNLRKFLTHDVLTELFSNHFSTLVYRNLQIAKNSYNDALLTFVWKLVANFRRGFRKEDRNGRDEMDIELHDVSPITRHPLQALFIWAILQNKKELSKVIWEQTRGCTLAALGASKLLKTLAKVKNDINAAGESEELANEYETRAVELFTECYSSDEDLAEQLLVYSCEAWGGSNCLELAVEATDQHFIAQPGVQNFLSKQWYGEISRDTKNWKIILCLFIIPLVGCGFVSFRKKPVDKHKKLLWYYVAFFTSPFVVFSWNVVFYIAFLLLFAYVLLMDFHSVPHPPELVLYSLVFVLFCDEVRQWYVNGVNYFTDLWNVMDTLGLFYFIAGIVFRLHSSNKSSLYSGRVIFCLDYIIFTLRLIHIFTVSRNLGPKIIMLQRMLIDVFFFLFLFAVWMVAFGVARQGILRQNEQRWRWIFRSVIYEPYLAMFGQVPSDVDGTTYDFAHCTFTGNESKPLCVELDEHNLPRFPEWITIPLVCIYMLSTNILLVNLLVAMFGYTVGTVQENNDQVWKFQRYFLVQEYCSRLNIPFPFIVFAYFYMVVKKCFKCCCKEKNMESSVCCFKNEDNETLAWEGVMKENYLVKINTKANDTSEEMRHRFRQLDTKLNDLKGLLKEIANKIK

SMILES	IC50 [nM]
O=C(Cc1ccncc1)N[C@@H](c1ccc(OC(F)(F)F)c(F)c1)c1ncccc1F [Example 290, (S)-N-((3-fluoro-4-(trifluoromethoxy)phenyl)(3-fluoropyridin-2-yl)methyl)-2-(pyridin-4-yl)acetamide]	944
O=C(N[C@@H](c1ccc(OC(F)(F)F)c(F)c1)c1ncccc1Br)c1ccc2oc(=O)[nH]c2c1 [Example 384, (S)-N-((3-bromopyridin-2-yl)(3-fluoro-4-(trifluoromethoxy)phenyl)methyl)-2-oxo-2,3-dihydrobenzo[d]oxazole-5-carboxamide]	5.8
C[C@@H](O)Cn1cc(C(=O)N[C@@H](c2ccc(C(F)(F)F)cc2)c2ncccc2F)ccc1=O [Example 301, N-((S)-(3-fluoropyridin-2-yl)(4-(trifluoromethyl)phenyl)methyl)-1-((R)-2-hydroxypropyl)-6-oxo-1,6-dihydropyridine-3-carboxamide]	41.7
O=C(O)c1cncc(C(=O)N[C@@H](c2ccc(C(F)(F)F)cc2)c2ncccc2C(F)(F)F)c1 [Example 226, (S)-5-(((4-(trifluoromethyl)phenyl)(3-(trifluoromethyl)pyridin-2-yl)methyl)carbamoyl)nicotinic acid]	2310
O=C(N[C@@H](c1ccc(C(F)(F)F)cc1)c1ncccc1F)c1n[nH]c2c1CCC2 [Example 321, (S)-N-((3-fluoropyridin-2-yl)(4-(trifluoromethyl)phenyl)methyl)-1,4,5,6-tetrahydrocyclopenta[c]pyrazole-3-carboxamide]	164
O=C(N[C@@H](c1ccc(OC(F)(F)F)c(F)c1)c1ncccc1F)c1ccc(=O)n(C(F)F)c1 [Example 399, (S)-1-(difluoromethyl)-N-((3-fluoro-4-(trifluoromethoxy)phenyl)(3-fluoropyridin-2-yl)methyl)-6-oxo-1,6-dihydropyridine-3-carboxamide]	16.5
COc1ccnc(C(NC(=O)c2ccc(=O)[nH]c2)c2ccc(OC(F)(F)F)c(F)c2)c1 (centres unmarked) [Example 422, N-((3-fluoro-4-(trifluoromethoxy)phenyl)(4-methoxypyridin-2-yl)methyl)-6-oxo-1,6-dihydropyridine-3-carboxamide]	841
Cc1ncncc1C(=O)N[C@@H](c1ccc(C(F)(F)F)cc1)c1ncccc1C(F)(F)F [Example 60, (S)-4-methyl-N-((4-(trifluoromethyl)phenyl)(3-(trifluoromethyl)pyridin-2-yl)methyl)pyrimidine-5-carboxamide]	78.4
O=C(CCc1c[nH]cn1)N[C@@H](c1ccc(C(F)(F)F)cc1)c1ncccc1C(F)(F)F [Example 155, (S)-3-(1H-imidazol-4-yl)-N-((4-(trifluoromethyl)phenyl)(3-(trifluoromethyl)pyridin-2-yl)methyl)propanamide 2,2,2-trifluoroacetate]	1440
O=C(N[C@@H](c1ccc(C(F)(F)F)cc1)c1ncccc1F)c1ccc(O)cn1 [Example 173, (S)-N-((3-fluoropyridin-2-yl)(4-(trifluoromethyl)phenyl)methyl)-5-hydroxypicolinamide]	15.3
O=C(N[C@@H](c1ccc(C(F)(F)F)cc1)c1ncccc1C(F)(F)F)C1CCC(O)CC1 (stereo partly drawn) [Example 242, (S)-4-hydroxy-N-((4-(trifluoromethyl)phenyl)(3-(trifluoromethyl)pyridin-2-yl)methyl)cyclohexanecarboxamide]	1030
CC(C)(O)Cn1cc(C(=O)N[C@@H](c2ccc(C(F)(F)F)cc2)c2ncccc2F)ccc1=O [Example 303, (S)-N-((3-fluoropyridin-2-yl)(4-(trifluoromethyl)phenyl)methyl)-1-(2-hydroxy-2-methylpropyl)-6-oxo-1,6-dihydropyridine-3-carboxamide]	143
COn1cc(C(=O)N[C@@H](c2ccc(C(F)(F)F)cc2)c2ncccc2F)ccc1=O [Example 369, (S)-N-((3-fluoropyridin-2-yl)(4-(trifluoromethyl)phenyl)methyl)-1-methoxy-6-oxo-1,6-dihydropyridine-3-carboxamide]	3710

The remaining lines, values ahead:

IC50 [nM]	SMILES
16.1	CNC(=O)c1ccc(C(=O)N[C@@H](c2ccc(C(F)(F)F)cc2)c2ncccc2F)nc1 [Example 273, (S)—N^2-((3-Fluoropyridin-2-yl)(4-(trifluoromethyl)phenyl)-methyl)-N^5-methylpyridine-2,5-dicarboxamide 2,2,2-trifluoroacetate]
8.9	O=C(N[C@@H](c1ccc(C(F)(F)F)cc1)c1ncccc1C(F)(F)F)c1ccn2ccnc2c1 [Example 87, (S)-N-((4-(trifluoromethyl)phenyl)(3-(trifluoromethyl)pyridin-2-yl)methyl)imidazo[1,2-a]pyridine-7-carboxamide]
5.3	Cc1cccnc1[C@@H](NC(=O)c1ccc2oc(=O)[nH]c2c1)c1ccc(C(F)(F)F)cc1 [Example 84, (S)-N-((3-methylpyridin-2-methyl)phenyl)yl)(4-(trifluoromethyl)-2-oxo-2,3-dihydrobenzo[d]oxazole-5-carboxamide]
129	O=C(N[C@@H](c1ccc(C(F)(F)F)cc1)c1ncccc1C(F)(F)F)c1ccc2c(c1)C(=O)N(c1ccccn1)C2=O [Example 99, (S)-1,3-dioxo-2-(pyridin-2-yl)-N-((4-(trifluoromethyl)phenyl)(3-(trifluoromethyl)pydin-2-yl)methyl)isoindoline-5-carboxamide 2,2,2-trifluoroacetate]
11.1	O=C1Cc2cc(C(=O)N[C@@H](c3ccc(OC(F)(F)F)c(F)c3)c3ncccc3F)ccc2N1 [Example 346, (S)-N-((3-fluoro-4-(trifluoromethoxy)phenyl)(3-fluoropyridin-2-yl)methyl)-2-oxoindoline-5-carboxamide]
149	O=C(N[C@@H](c1ccc(C(F)(F)F)c(F)c1)c1ncccc1C(F)(F)F)[C@H]1CCCO1 [Example 123, (R)-N-((S)-(3-fluoro-4-(trifluoromethyl)phenyl)(3-(trifluoromethyl)pyridin-2-yl)methyl)THF-2-carboxamide]
39.8	O=C(O)c1cccc(C(=O)N[C@@H](c2ccc(C(F)(F)F)cc2)c2ncccc2C(F)(F)F)c1 [Example 179, (S)-3-(((4-(trifluoromethyl)phenyl)(3-(trifluoromethyl)pyridin-2-yl)methyl)carbamoyl)benzoic acid]
13.6	Cc1cccnc1[C@@H](NC(=O)c1ccc(=O)[nH]c1)c1ccc(OC(F)(F)F)cc1 [Example 359, (S)-N-((3-methylpyridin-2-yl)(4-(trifluoromethoxy)phenyl)methyl)-6-oxo-1,6-dihydropyridine-3-carboxamide]
107	O=C(N[C@@H](c1ccc(C(F)(F)F)cc1)c1ncccc1C(F)(F)F)c1ccc(I)cc1 [Example 122, (S)-4-iodo-N-((4-(trifluoromethyl)phenyl)(3-(trifluoromethyl)pyridin-2-yl)methyl)benzamide]
1610	O=C(Cc1cccnc1)N[C@@H](c1ccc(OC(F)(F)F)c(F)c1)c1ncccc1F [Example 289, (S)-N-((3-fluoro-4-(trifluoromethoxy)phenyl)(3-fluoropyridin-2-yl)methyl)-2-(pyridin-3-yl)acetamide]
63.5	O=C(N[C@@H](c1ccc(C(F)(F)F)cc1)c1ncccc1C(F)(F)F)c1c[nH]c2ncncc12 [Example 45, (S)-N-((4-(trifluoromethyl)phenyl)(3-(trifluoromethyl)pyridin-2-yl)methyl)-7H-pyrrolo[2,3-d]pyrimidine-5-carboxamide]
245	O=C1CCC(C(=O)N[C@@H](c2ccc(C(F)(F)F)cc2)c2ncccc2C(F)(F)F)CN1 (stereo partly drawn) [Example 65, 6-oxo-N-((S)-(4-(trifluoromethyl)phenyl)(3-(trifluoromethyl)pyridin-2-yl)methyl)piperidine-3-carboxamide]
78.1	O=C(N[C@@H](c1ccc(OC(F)(F)F)c(F)c1)c1ncccc1F)c1ccc(=O)n(C[C@H](O)C(F)(F)F)c1 [Example 408, N-((S)-(3-fluoro-4-(trifluoromethoxy)phenyl)(3-fluoropyridin-2-yl)methyl)-6-oxo-1-((S)-3,3,3-trifluoro-2-hydroxypropyl)-1,6-dihydropyridine-3-carboxamide]
90.5	O=C(N[C@@H](c1ccc(C(F)(F)F)cc1)c1ncccc1C(F)(F)F)c1ccccc1I [Example 118, (S)-2-iodo-N-((4-(trifluoromethyl)phenyl)(3-(trifluoromethyl)pyridin-2-yl)methyl)benzamide]
6.6	Cn1cnc2ccc(C(=O)N[C@@H](c3ccc(C(F)(F)F)cc3)c3ncccc3F)cc21 [Example 395, (S)-N-((3-fluoropyridin-2-yl)(4-(trifluoromethyl)phenyl)methyl)-1-methyl-1H-benzo[d]imidazole-6-carboxamide]
94.9	Cc1ncc(C(=O)N[C@@H](c2ccc(C(F)(F)F)cc2)c2ncccc2C(F)(F)F)c(N)n1 [Example 137, (S)-4-amino-2-methyl-N-((4-(trifluoromethyl)phenyl)(3-(trifluoromethyl)pyridin-2-yl)methyl)pyrimidine-5-carboxamide]
187	O=C(N[C@@H](c1cnc2c(F)cccc2c1)c1ncccc1C(F)(F)F)c1ccc2cccnc2c1 [Example 20, (S)-N-((8-fluoroquinolin-3-yl)(3-(trifluoromethyl)pyridin-2-yl)methyl)quinoline-7-carboxamide]
23.1	Cn1cc(C(=O)N[C@@H](c2ccc(OC(F)(F)F)c(F)c2)c2ccccc2F)ccc1=O [Example 296, (S)-N-((3-fluoro-4-(trifluoromethoxy)phenyl)(2-fluorophenyl)methyl)-1-methyl-6-oxo-1,6-dihydropyridine-3-carboxamide]
41.7	O=C(N[C@@H](c1ccc(C(F)(F)F)cc1)c1ncccc1C(F)(F)F)c1cccc(Cl)c1 [Example 208, (S)-3-chloro-N-((4-(trifluoromethyl)phenyl)(3-(trifluoromethyl)pyridin-2-yl)methyl)benzamide]
